In patent US4283420A, “Pharmaceutically active cyclohexyl compounds and their preparation” (Labaz, priority 1978, dated 1981):
Where two headings read alike, the source gives them in different places.

Columns and labels:
mice [1] = test: β-Mercaptopropionic acid seizure; type: in vivo; details: for ED50: Mus musculus, po, 0.25 h, read-out: β-Mercaptopropionic acid seizure, ED50; for β-Mercaptopropionic acid seizure, % protection: at 400 mg/kg, peroral, 15 minutes
Experimental: β-Mercaptopropionic acid seizure
β-Mercaptopropionic acid is an inhibitor of glutamatedecarboxylase (GAD), which is an enzyme which catalyses the conversion of glutamate to γ-aminobutyric acid (GABA). Its action thus manifests itself in a lowering of the GABA level and the occurrence of general tonico-clonic seizures 3 to 4 minutes after it has been administered. β-Mercaptopropionic acid was administered to mice intraperitoneally at a dose of 40 mg/kg.

[2] = Sedative activity: Rotarod test; type: in vivo, mice (male); details: mouse, in vivo, po
Experimental: This test is used for the purpose of assessing the ability of the animals to coordinate their movements. It uses a wooden cylinder which has a diameter of 4.8 cm and revolves at a speed of 4 revolutions/minute. The test is carried out on male mice weighing about 22 g. The products are administered perorally (p.o.) to batches of 10 animals per dose. The animals are placed on the apparatus 15 minutes after administration of the product. The percentage of mice which lose their equilibrium reflex, that is to say which become incapable of retaining their balance on the cylinder for a period of 2 minutes, is noted.
Using the regression straight line method, a 50% neurotoxic dose (NTD 50) is calculated, which thus expresses the average level of the first neuromuscular effects under the influence of the studied product.

Acute toxicity, peroral = details: mouse, in vivo, po
Experimental: In order to locate the boundary separating the pharmacological effects from the toxicity of the products, a very approximate assessment of the toxicity was carried out on mice (batches of 10 animals) after peroral treatment.

male Swiss mice = test: Maximum electrical seizure; type: in vivo; details: for ED50: Mus musculus, po, 0.25 h, read-out: Maximum electrical seizure, ED50; for Maximum electrical seizure, % protection: peroral, 15 minutes
Text: Maximum electrical seizure
The technique used is that recommended by GOODMAN (L. S.), SING-GREWALD (M.), BROWN (V. C.) and […] (E. A.), Am.
The animals tested are male Swiss mice grouped into batches of 10. The normal threshold of the electric shock which is capable of causing tonic extension of the front paws is first determined for each animal.

mouse = test: Ouabain seizure; type: in vivo; details: po, 0.25 h, read-out: Ouabain seizure, ED50
Experimental: Ouabain was administered intra-ventricularly at a dose of 5 γ/mouse in a volume of 0.02 ml.

mice [3] = test: Anoxia as a result of confinement; type: in vivo; details: Mus musculus, ip, read-out: Anoxia as a result of confinement, % increase in the survival time
Experimental: Anoxia as a result of confinement
Mice (in batches of 20) are placed in a 200 cm^3 hermetically sealed chamber (a wide-mouthed glass vessel) which is under normal pressure and has a normal content of atmospheric oxygen. All of the treatments are administered intraperitoneally immediately before introduction into the chamber. The animal is considered to be dead at the moment when breathing stops.
Since the wide-mouthed vessels chosen are very small, the motor activity of the animals is extremely low and this eliminates, in principle, the possibility of a positive result due to a sedative effect.
Therefore, the percentage increase in the survival time of the treated animals is noted, relative to the batch.

male OFl mice = test: Pentetrazole seizure (mortality after i.p. pentetrazole 125 mg/kg); type: in vivo; details: for ED50: Mus musculus, po, 0.25 h
Experimental: This test was carried out on batches of 10 male OFl mice which had fasted since the day before and were placed in individual cages, in accordance with the method of Cheymol (J.) Acta. Pharmacol., (1950), 2, 1-55.
The treatments were carried out perorally 15 minutes before intraperitoneal (i.p.) injection of a solution of pentetrazole (125 mg/kg).
The mortality is recorded 3 hours after this injection.
It is to be noted that the 50% effective doses (ED50), where these have been determined, were calculated by the method of MOOD (J. Am. Statist. Assoc., (1965), 60, 967-78).

[4] = peroral, 15 minutes after administration, male mice, read-out: Sedative activity, Rotarod test, ED50
[5] = read-out: Pentetrazole seizure, ED50
[6] = read-out: DE 50, Pentetrazole crisis test
[7] = Table III, mice, peroral, 15 minutes after administration, read-out: DE 50, Pentetrazole crisis test
[8] = β-mercaptopropionic acid 40 mg/kg i.p., mice, 15 minutes after peroral treatment
[9] = mice, measured 15 minutes after peroral treatment
[10] = ouabain 5 γ/mouse intra-ventricularly, measured 15 minutes after peroral treatment
[11] = at 50 mg/kg, intraperitoneal, mice
[12] = Table IV, mice, measured 15 minutes after peroral treatment, read-out: Pentetrazole seizure, ED50

Compound: CC1(C(=O)[O-])CCCCC1.[Na+]
- ED50 (mice [1]): 118 mg/kg
- TD50 at 0.25 h [2, 4]: 1020 mg/kg
- mortality (Acute toxicity, peroral; at 1882 mg/kg, peroral, mice): 50%
- ED50 (male Swiss mice): 563 mg/kg
- ED50 (mouse; Mus musculus): 600 mg/kg
- ILS at 160 mg/kg (mice [3]): 29%
- ED50 (male OFl mice; [5]): 317 mg/kg

Compound: O=C([O-])C1(Cc2ccccc2)CCCCC1.[Na+]
- ED50 (mice [1]): 257 mg/kg
- TD50 at 0.25 h [2, 4]: 650 mg/kg
- mortality (Acute toxicity, peroral; 1000 mg/kg, at 1,000 mg/kg, peroral, mice): 20%
- ED50 (male Swiss mice): 431 mg/kg
- ED50 (mouse; Mus musculus): 638 mg/kg
- ILS at 170 mg/kg (mice [3]): 44%
- ED50 (male OFl mice; [5]): 116 mg/kg

Compound: O=C([O-])C1(CC(Br)=CBr)CCCCC1.[Na+]
- ED50 (mice [1]): 340 mg/kg
- TD50 at 0.25 h [2, 4]: 280 mg/kg
- mortality (Acute toxicity, peroral; at 600 mg/kg, peroral, mice): 0%
- Maximum electrical seizure, % protection (male Swiss mice; at 600 mg/kg, mice): 60%
- ED50 (mouse; Mus musculus): > 900 mg/kg
- ILS at 190 mg/kg (mice [3]): 50%
- ED50 (male OFl mice; [5]): 240 mg/kg

Compound: CCCC(CCC)C(=O)[O-].[Na+] [Depakene, sodium dipropyl-acetate, reference compound]
- ED50 (male OFl mice; [6]): 142 mg/kg

Compound: CCC1(C(=O)O)CCCCC1 [Example 15]
- ED50 (male OFl mice; [7]): 120 mg/kg

Compound: CC(C)C1(C(=O)O)CCCCC1 [Example 16]
- ED50 (male OFl mice; [7]): 110 mg/kg

Compound: C=C(Cl)CC1(C(N)=O)CCCCC1 [Example 24, 1-(2'-chloro-2'-propenyl)-1-cyclohexyl-carboxamide]
- ED50 (mice [1]; [8]): 64 mg/kg
- TD50 at 0.25 h [2]: 125 mg/kg
- mortality (Acute toxicity, peroral; 500 mg/kg): 20%
- ED50 (male Swiss mice; [9]): 101 mg/kg
- ED50 (mouse; [10]): 96 mg/kg
- ILS at 50 mg/kg (mice [3]; [11]): 0%
- ED50 (male OFl mice; [12]): 57 mg/kg

Compound: NC(=O)C1(CBr)CCCCC1 [Example 26]
- ED50 (mice [1]; [8]): 46 mg/kg
- TD50 at 0.25 h [2, 4]: 125 mg/kg
- mortality (Acute toxicity, peroral; at 500 mg/kg, peroral, mice): 0%
- ILS at 50 mg/kg (mice [3]): 6%
- ED50 (male OFl mice; [5]): 75 mg/kg

Compound: C=CCC1(C(N)=O)CCCCC1 [Example 27]
- ED50 (mice [1]; [8]): 38 mg/kg
- TD50 at 0.25 h [2]: 75 mg/kg
- mortality (Acute toxicity, peroral; 500 mg/kg): 100%
- ED50 (male Swiss mice; [9]): 55 mg/kg
- ED50 (mouse; [10]): 66 mg/kg
- ILS at 50 mg/kg (mice [3]; [11]): 0%
- ED50 (male OFl mice; [12]): 20 mg/kg

Compound: CC1(C(N)=O)CCCCC1 [Example 28]
- ED50 (mice [1]; [8]): 100 mg/kg
- TD50 at 0.25 h [2]: 425 mg/kg
- mortality (Acute toxicity, peroral; 752 mg/kg): 50%
- ED50 (male Swiss mice; [9]): 311 mg/kg
- ILS at 70 mg/kg (mice [3]; at 70 mg/kg, intraperitoneal, mice): 30%
- ED50 (male OFl mice; [12]): 178 mg/kg

Compound: C#CCC1(C(N)=O)CCCCC1 [Example 30]
- TD50 at 0.25 h [2, 4]: 125 mg/kg
- mortality (Acute toxicity, peroral; at 500 mg/kg, peroral, mice): 20%
- ED50 (male Swiss mice; [9]): 91 mg/kg
- ED50 (mouse; [10]): 170 mg/kg
- ED50 (male OFl mice; [5]): 65 mg/kg

Compound: COCC1(C(N)=O)CCCCC1 [Example 31]
- TD50 at 0.25 h [2]: 300 mg/kg
- mortality (Acute toxicity, peroral; 500 mg/kg): 0%
- ED50 (male Swiss mice; [9]): 200 mg/kg
- ED50 (mouse; [10]): 250 mg/kg
- ED50 (male OFl mice; [12]): 195 mg/kg

Compound: NC(=O)C1(Cc2ccccc2)CCCCC1 [Example 32]
- ED50 (mice [1]; [8]): 200 mg/kg
- TD50 at 0.25 h [2]: 125 mg/kg
- ED50 (male Swiss mice; [9]): 115 mg/kg
- ED50 (mouse; [10]): 200 mg/kg
- ILS at 50 mg/kg (mice [3]; [11]): 0%
- ED50 (male OFl mice; [12]): 32 mg/kg

Compound: O=C(O)C1(CC#CBr)CCCCC1 [Example 35, 1-(3-bromo-2-propynyl)-1-cyclohexyl-carboxylic acid]
- β-Mercaptopropionic acid seizure, % protection (mice [1]; mice): 30%
- TD50 at 0.25 h [2]: 245 mg/kg
- mortality (Acute toxicity, peroral; at 735 mg/kg, peroral, mice): 0%
- Maximum electrical seizure, % protection (male Swiss mice; at 735 mg/kg, mice): 20%
- ED50 (male OFl mice; [12]): 335 mg/kg

Compound: C=CC1(C(=O)[O-])CCCCC1.[Na+] [Example 37, Sodium 1-vinyl-1-cyclohexyl-carboxylate]
- ED50 (male OFl mice; [5]): 95 mg/kg

Compound: CC(C)(Cl)C1(C(N)=O)CCCCC1 [Example 39, 1-(1-chloro-1-methylethyl)-1-cyclohexyl-carboxamide]
- ED50 (mice [1]; [8]): 63 mg/kg
- ED50 (male OFl mice; [12]): 66 mg/kg

Compound: CC(C)(C)C1(C(=O)[O-])CCCCC1.[Na+] [Example 41, Sodium 1-tert-butyl-1-cyclohexyl-carboxylate]
- ED50 (male OFl mice; [6]): 131 mg/kg

Compound: CC(C)(C)C1(C(N)=O)CCCCC1 [Example 42, 1-tert-butyl-1-cyclohexyl-carboxamide]
- ED50 (mice [1]; [8]): 95 mg/kg
- ED50 (male OFl mice; [12]): 79 mg/kg

Compound: O=C(CBr)CC1(C(=O)O)CCCCC1 [Example 47, 1-bromoacetonyl-1-cyclohexyl-carboxylic acid]
- β-Mercaptopropionic acid seizure, % protection (mice [1]; mice): 30%
- mortality (Acute toxicity, peroral; at 790 mg/kg, peroral, mice): 30%
- ILS at 130 mg/kg (mice [3]; at 130 mg/kg, intraperitoneal, mice): 24%
- Pentetrazole seizure, % protection (male OFl mice; at 395 mg/kg, peroral, 15 minutes, mice): 0%

Compound: NC(=O)C1(CCOc2ccccc2)CCCCC1 [Example 54, 1-(2-phenoxyethyl)-1-cyclohexyl-carboxamide]
- ED50 (mice [1]; [8]): 86 mg/kg
- TD50 at 0.25 h [2]: 160 mg/kg
- ED50 (male OFl mice; [12]): 198 mg/kg
